From ChEMBL document CHEMBL1938396, “Synthesis of new praziquantel analogues: potential candidates for the treatment of schistosomiasis” (2012)

Tested on: Schistosoma mansoni
Experiment: Antischistosomal activity against Schistosoma mansoni assessed as worm survival incubated for overnight followed by drug washout measured on day 7
Format: functional

Compound `O=C(CC1CCCCC1)N1CC2c3ccccc3CCN2C(=O)C1=O` (stereo not given) has an LC90 greater than 100 µM.

`O=C1C(=O)N2CCc3ccccc3C2CN1C(=O)C1CCCCC1` (stereo not given) gave an LC90 greater than 100 µM.

With `COc1cc2c(cc1OC)C1CN(C(=O)C3CCCC3)CC(=O)N1CC2` (stereo not given) the LC90 was 25 µM.

`O=C1C(=O)N2CCc3c(n(Cc4ccccc4)c4ccccc34)C2CN1C(=O)C1CCCC1` (stereo not given) gave an LC90 greater than 100 µM.

With `Cc1ccc(S(=O)(=O)N2CC(=O)N3CCc4ccccc4C3C2)cc1` (stereo not given) the LC90 was greater than 10 µM.

`COc1cc2c(cc1OC)C1CN(C(=O)c3ccc(C(F)(F)F)cc3)CC(=O)N1CC2` (stereo not given) showed an LC90 greater than 100 µM.

`O=C(C1CCCCC1)N1CC(=O)N2CCc3ccccc3C2C1` (stereo not given) [PRAZIQUANTEL] gave an LC90 of 3 µM.

With `O=C(C1CCCC1)N1CC(=O)N2CCc3ccccc3C2C1` (stereo not given) the LC90 was 10 µM.

`O=C1C(=O)N2CCc3c(n(Cc4ccccc4)c4ccccc34)C2CN1C(=O)c1ccc(C(F)(F)F)cc1` (stereo not given) gave an LC90 greater than 100 µM.

`O=C1C(=O)N2CCc3ccccc3C2CN1C(=O)c1ccc(C(F)(F)F)cc1` (stereo not given) gave an LC90 greater than 100 µM.

For `COc1cc2c(cc1OC)C1CN(S(=O)(=O)c3ccc(C)cc3)CC(=O)N1CC2` (stereo not given), the LC90 was greater than 100 µM.

Work on `O=C1C(=O)N2CCc3c(n(Cc4ccccc4)c4ccccc34)C2CN1C(=O)C1CCCCC1` (stereo not given) yielded an LC90 greater than 100 µM.

For `O=C(CC1CCCCC1)N1CC2c3c(c4ccccc4n3Cc3ccccc3)CCN2C(=O)C1=O` (stereo not given), the LC90 was greater than 100 µM.

`O=C(c1ccc(C(F)(F)F)cc1)N1CC(=O)N2CCc3c([nH]c4ccccc34)C2C1` (stereo not given) gave an LC90 of 50 µM.

`O=C(C1CCCCC1)N1CC(=O)N2CCc3c([nH]c4ccccc34)C2C1` (stereo not given) gave an LC90 of 25 µM.

`COc1cc2c(cc1OC)C1CN(C(=O)C3CCCCC3)CC(=O)N1CC2` (stereo not given) was tested, and the LC90 was 50 µM.

For `O=C(C1CCCCC1)N1CC(=O)N2CCc3c(n(Cc4ccccc4)c4ccccc34)C2C1` (stereo not given), the LC90 was 25 µM.

With `O=C1C(=O)N2CCc3ccccc3C2CN1C(=O)C1CCCC1` (stereo not given) the LC90 was greater than 100 µM.

Work on `Cc1ccc(S(=O)(=O)N2CC3c4ccccc4CCN3C(=O)C2=O)cc1` (stereo not given) yielded an LC90 greater than 100 µM.

In the case of `O=C(c1ccc(C(F)(F)F)cc1)N1CC(=O)N2CCc3c(n(Cc4ccccc4)c4ccccc34)C2C1` (stereo not given), the LC90 is reported as greater than 100 µM.
